# Source: ChEMBL document CHEMBL3352102, “Synthesis and bioevaluation of 2-phenyl-4-methyl-1,3-selenazole-5-carboxylic acids as potent xanthine oxidase inhibitors” (Eur J Med Chem, 2014)
# Experiments:
# [1] = biological target: T1, Xanthine dehydrogenase/oxidase (Bos taurus, UniProt P80457); experiment: Inhibition of bovine xanthine oxidase assessed as inhibition of uric acid formation after 30 mins by spectrophotometry
# [2] = biological target: T1, Xanthine dehydrogenase/oxidase; experiment: Mixed-type inhibition of bovine xanthine oxidase assessed as inhibition of uric acid formation by Lineweaver-Burk plot
# [3] = biological target: T1, Xanthine dehydrogenase/oxidase; experiment: Mixed-type inhibition of reduced form of bovine xanthine oxidase assessed as inhibition of uric acid formation by Lineweaver-Burk plot; details: cattle
# [4] = biological target: T1, Xanthine dehydrogenase/oxidase; experiment: Mixed-type inhibition of oxidized form of bovine xanthine oxidase assessed as inhibition of uric acid formation by Lineweaver-Burk plot; details: cattle
# [5] = biological target: T1, Xanthine dehydrogenase/oxidase; experiment: Mixed-type inhibition of bovine xanthine oxidase assessed as inhibition of uric acid formation by secondary Lineweaver-Burk plot
# [6] = biological target: T1, Xanthine dehydrogenase/oxidase; experiment: Inhibition of bovine xanthine oxidase assessed as inhibition of uric acid formation at 10000 nM after 30 mins by spectrophotometry; details: cattle, 0.5 h
# T1 sequence (P80457 whole entry): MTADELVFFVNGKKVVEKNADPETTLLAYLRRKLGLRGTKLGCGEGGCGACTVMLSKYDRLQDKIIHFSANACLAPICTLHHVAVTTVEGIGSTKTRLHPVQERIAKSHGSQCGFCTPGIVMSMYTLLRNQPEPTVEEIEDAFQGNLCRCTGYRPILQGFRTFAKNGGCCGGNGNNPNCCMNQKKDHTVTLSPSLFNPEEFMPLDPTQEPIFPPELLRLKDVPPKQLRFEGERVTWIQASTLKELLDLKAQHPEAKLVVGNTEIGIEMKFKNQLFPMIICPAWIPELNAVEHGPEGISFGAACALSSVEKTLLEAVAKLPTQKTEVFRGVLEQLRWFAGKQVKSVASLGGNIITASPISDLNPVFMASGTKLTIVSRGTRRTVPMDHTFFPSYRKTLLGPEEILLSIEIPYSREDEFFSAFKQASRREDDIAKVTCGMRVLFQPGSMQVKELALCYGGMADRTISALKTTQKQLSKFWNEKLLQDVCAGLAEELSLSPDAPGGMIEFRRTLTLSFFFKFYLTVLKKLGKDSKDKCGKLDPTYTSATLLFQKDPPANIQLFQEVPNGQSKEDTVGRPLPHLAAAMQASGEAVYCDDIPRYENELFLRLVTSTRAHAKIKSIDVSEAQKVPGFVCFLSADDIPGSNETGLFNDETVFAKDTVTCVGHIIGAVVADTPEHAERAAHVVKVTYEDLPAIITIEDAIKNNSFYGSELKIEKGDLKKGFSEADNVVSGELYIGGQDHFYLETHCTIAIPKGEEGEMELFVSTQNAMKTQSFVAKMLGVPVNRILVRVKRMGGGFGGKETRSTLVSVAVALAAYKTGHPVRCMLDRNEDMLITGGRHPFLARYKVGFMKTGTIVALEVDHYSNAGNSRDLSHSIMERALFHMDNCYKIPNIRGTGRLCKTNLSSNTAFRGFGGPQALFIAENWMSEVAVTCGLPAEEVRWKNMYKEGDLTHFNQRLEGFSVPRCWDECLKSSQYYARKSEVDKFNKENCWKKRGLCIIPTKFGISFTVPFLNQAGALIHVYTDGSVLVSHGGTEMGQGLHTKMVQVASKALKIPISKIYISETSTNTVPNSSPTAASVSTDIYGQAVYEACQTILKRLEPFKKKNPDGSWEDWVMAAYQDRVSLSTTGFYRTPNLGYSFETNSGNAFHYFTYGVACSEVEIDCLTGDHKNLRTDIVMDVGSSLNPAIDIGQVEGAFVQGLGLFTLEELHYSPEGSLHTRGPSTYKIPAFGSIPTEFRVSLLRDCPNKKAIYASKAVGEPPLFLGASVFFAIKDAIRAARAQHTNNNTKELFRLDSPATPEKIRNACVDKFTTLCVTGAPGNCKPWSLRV
Compound,IC50 [1] [nM],further results
Cc1nc(-c2ccc(OCCC(C)C)c([N+](=O)[O-])c2)[se]c1C(=O)O,65.6,
CCOc1ccc(-c2nc(C)c(C(=O)O)[se]2)cc1[N+](=O)[O-],82.5,
CCCCOc1ccc(-c2nc(C)c(C(=O)O)[se]2)cc1[N+](=O)[O-],49.2,
Cc1nc(-c2ccc(OCC(C)C)c([N+](=O)[O-])c2)[se]c1C(=O)O,33.7,
C=CCOc1ccc(-c2nc(C)c(C(=O)O)[se]2)cc1[N+](=O)[O-],16.1,
Cc1nc(-c2ccc(OCc3ccccc3)c([N+](=O)[O-])c2)[se]c1C(=O)O,40.3,
CCCCOc1ccc(-c2nc(C)c(C(=O)O)[se]2)cc1C#N,13.2,
C=CCOc1ccc(-c2nc(C)c(C(=O)O)[se]2)cc1C#N,5.5,Ki [2]: 0.9 nM; inhibition (INH) [3]: Active; inhibition (INH) [4]: Active; Ki [5]: 2.3 nM
COc1ccc(-c2nc(C)c(C(=O)O)[se]2)cc1C#N,30.6,
CCCOc1ccc(-c2nc(C)c(C(=O)O)[se]2)cc1C#N,16.2,
CCC(C)Oc1ccc(-c2nc(C)c(C(=O)O)[se]2)cc1C#N (stereo not drawn),10.4,
CCCCCOc1ccc(-c2nc(C)c(C(=O)O)[se]2)cc1C#N,45.6,
C#CCOc1ccc(-c2nc(C)c(C(=O)O)[se]2)cc1C#N,53.8,
C=CCOc1ccc(-c2nc(C)c(C(=O)OCC)[se]2)cc1C#N,,inhibition at 10 µM [6]: < 50%
